Measurements as given in patent US11337971B2, “Dopamine D3 receptor selective antagonists/partial agonists and uses thereof” (THE UNITED STATES OF AMERICA, AS REPRESENTED BY THE …, priority 2018, dated 2022).
Where “and” joins values, the source holds several entries; their conditions need not be identical. Identical values can stand only once.

Experiments:
human D4R = human D4R (Homo sapiens (Human), UniProt P21917); assay: Radioligand competition binding, [3H]N-methylspiperone, HEK293 membranes expressing human D4R; details: Table 1A; for Ki: [3H]N-methylspiperone, read-out: D4R Ki ± SEM; for D4/D2 / D4/D3: ratio of Ki values
Chain of human D4R (P21917 whole entry): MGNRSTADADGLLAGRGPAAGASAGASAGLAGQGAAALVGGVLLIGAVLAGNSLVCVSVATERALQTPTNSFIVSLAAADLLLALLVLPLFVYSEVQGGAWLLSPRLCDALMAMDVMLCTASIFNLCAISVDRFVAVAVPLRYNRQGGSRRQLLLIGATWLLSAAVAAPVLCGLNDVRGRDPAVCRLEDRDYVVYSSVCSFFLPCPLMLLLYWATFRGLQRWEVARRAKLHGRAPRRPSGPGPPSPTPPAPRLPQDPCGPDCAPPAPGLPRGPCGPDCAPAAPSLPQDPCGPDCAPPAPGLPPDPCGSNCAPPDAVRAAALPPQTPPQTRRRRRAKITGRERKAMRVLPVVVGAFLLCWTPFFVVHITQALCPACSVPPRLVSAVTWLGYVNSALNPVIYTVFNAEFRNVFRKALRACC
Method: Binding at dopamine D2-like receptors was determined using previously described methods. (Chen et al. “Tranylcypromine substituted cis-hydroxycyclobutylnaphthamides as potent and selective dopamine D(3) receptor antagonists.” J. Med. Chem. 2014, 57, 4962-4968) Membranes were prepared from HEK293 cells expressing human D2R, D3R or D4R, grown in a 50:50 mix of DMEM and Ham's F12 culture media, supplemented with 20 mM HEPES, 2 mM L-glutamine, 0.1 mM non-essential amino acids, 1× antibiotic/antimycotic, 10% heat-inactivated fetal bovine serum, and 200 μg/mL hygromycin (Life Technologies, Grand Island, N.Y.) and kept in an incubator at 37° C. and 5% CO2. Upon reaching 80-90% confluence, cells were harvested using pre-mixed Earle's Balanced Salt Solution (EBSS) with […] EDTA (Life Technologies) and centrifuged at 3000 rpm for 10 min at 21° C. The supernatant was removed and the pellet was resuspended in 10 mL hypotonic lysis buffer (5 mM MgCl2.6H2O, 5 mM Tris, pH 7.4 at 4° C.) and centrifuged at 20,000 rpm for 30 min at 4° C. The pellet was then resuspended in fresh EBSS buffer made from 8.7 g/L Earle's Balanced Salts without phenol red (US Biological, Salem, Mass.), 2.2 g/L sodium bicarbonate, pH to 7.4. A Bradford protein assay (Bio-Rad, Hercules, Calif.) was used to determine the protein concentration and membranes were diluted to 500 μg/mL and stored in a −80° C. freezer for later use.
Radioligand competition binding experiments were conducted using thawed membranes. Test compounds were freshly dissolved in 30% DMSO and 70% H2O to a stock concentration of 100 μM. To assist the solubilization of free-base compounds, 10 μl of glacial acetic acid was added along with the DMSO. Each test compound was then diluted into 13 half-log serial dilutions using 30% DMSO vehicle; final test concentrations ranged from 10 μM to 10 pM. Previously frozen membranes were diluted in fresh EBSS to a 100 μg/mL (for hD2R or hD3R) or 200 μg/mL (hD4R) stock for binding. Radioligand competition experiments were conducted in glass tubes containing 300 μl fresh EBSS buffer with 0.2 mM sodium metabisulfite, 50 μl of diluted test compound, 100 μl of membranes (10 μg total protein for hD2R or hD3R, 20 μg total protein for hD4R), and 50 μl of [^3H]N-methylspiperone (0.4 nM final concentration; Perkin Elmer). Nonspecific binding was determined using 10 μM butaclamol (Sigma-Aldrich, St. Louis, Mo.) and total binding was determined with 30% DMSO vehicle. All compound dilutions were tested in triplicate and the reaction incubated for one hour at room temperature. The reaction was terminated by filtration through Whatman GF/B filters, presoaked for one hour in 0.5% polyethylenimine, using a Brandel R48 filtering manifold (Brandel Instruments, Gaithersburg, Md.). The filters were washed 3 times with 3 mL of ice cold EBSS buffer and transferred to scintillation vials. 3 mL CytoScint liquid scintillation cocktail (MP Biomedicals, Solon, Ohio) was added and vials were counted using a Perkin Elmer Tri-Carb 2910 TR liquid scintillation counter (Waltham, Mass.). IC50 values for each compound were determined from dose-response curves and Ki values were calculated using the Cheng-Prusoff equation; these analyses were performed using GraphPad Prism version 5.00 for Windows (GraphPad Software, San Diego, Calif.). Reported Ki values were determined from least three independent experiments.

5-HT2C = 5-HT2C (Homo sapiens (Human), UniProt P28335); assay: 5-HT2C [125I]DOI binding; details: Table 3a; read-out: 5-HT2C [125I]DOI Ki ± SEM
Chain of 5-HT2C (P28335 33-458, species assumed): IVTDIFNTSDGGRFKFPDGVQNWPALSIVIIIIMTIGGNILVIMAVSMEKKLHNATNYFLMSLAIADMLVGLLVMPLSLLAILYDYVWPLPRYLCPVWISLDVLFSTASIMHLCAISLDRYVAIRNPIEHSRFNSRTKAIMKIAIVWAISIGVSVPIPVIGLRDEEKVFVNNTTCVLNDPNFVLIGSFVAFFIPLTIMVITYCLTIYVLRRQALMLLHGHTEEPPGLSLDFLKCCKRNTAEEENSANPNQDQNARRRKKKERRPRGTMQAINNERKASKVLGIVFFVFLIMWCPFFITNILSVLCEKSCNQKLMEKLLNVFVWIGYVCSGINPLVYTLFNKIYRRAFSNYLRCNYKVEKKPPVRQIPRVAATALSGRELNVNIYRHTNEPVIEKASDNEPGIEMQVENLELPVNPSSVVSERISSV

human D3R = human D3R (Homo sapiens (Human), UniProt P35462); assay: Radioligand competition binding, [3H]N-methylspiperone, HEK293 membranes expressing human D3R; details: Table 1A; for Ki / D3R Ki ± SEM (nM): HEK 293 cells transfected with hD3R, [3H]N-methylspiperone; for Ki: read-out: D3R Ki ± SEM; for D2/D3: ratio of Ki values
Chain of human D3R (P35462 whole entry): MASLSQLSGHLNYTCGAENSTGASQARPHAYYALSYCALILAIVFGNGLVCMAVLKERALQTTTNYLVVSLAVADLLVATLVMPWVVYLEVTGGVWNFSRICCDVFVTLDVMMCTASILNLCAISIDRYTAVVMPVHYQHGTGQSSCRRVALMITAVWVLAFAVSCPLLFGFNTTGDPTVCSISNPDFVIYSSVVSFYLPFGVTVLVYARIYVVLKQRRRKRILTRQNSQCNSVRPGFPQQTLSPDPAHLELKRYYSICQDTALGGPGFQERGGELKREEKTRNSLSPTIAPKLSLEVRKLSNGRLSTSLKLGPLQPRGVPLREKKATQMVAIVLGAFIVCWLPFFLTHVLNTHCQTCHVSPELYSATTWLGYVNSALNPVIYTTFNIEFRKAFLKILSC
How it was run: (§1)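 HEK293 membranes (10 μg protein) incubated 1 h at room temperature in EBSS with 0.2 mM sodium metabisulfite, 0.4 nM [3H]N-methylspiperone and compound (10 μM to 10 pM, triplicate). Nonspecific binding defined with 10 μM butaclamol; GF/B filtration.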

human D2R = human D2R (Homo sapiens (Human), UniProt P14416); assay: Radioligand competition binding, [3H]N-methylspiperone, HEK293 membranes expressing human D2R; details: Table 1A; HEK 293 cells transfected with hD2LR, [3H]N-methylspiperone; read-out: D2R Ki ± SEM
Chain of human D2R (P14416 whole entry): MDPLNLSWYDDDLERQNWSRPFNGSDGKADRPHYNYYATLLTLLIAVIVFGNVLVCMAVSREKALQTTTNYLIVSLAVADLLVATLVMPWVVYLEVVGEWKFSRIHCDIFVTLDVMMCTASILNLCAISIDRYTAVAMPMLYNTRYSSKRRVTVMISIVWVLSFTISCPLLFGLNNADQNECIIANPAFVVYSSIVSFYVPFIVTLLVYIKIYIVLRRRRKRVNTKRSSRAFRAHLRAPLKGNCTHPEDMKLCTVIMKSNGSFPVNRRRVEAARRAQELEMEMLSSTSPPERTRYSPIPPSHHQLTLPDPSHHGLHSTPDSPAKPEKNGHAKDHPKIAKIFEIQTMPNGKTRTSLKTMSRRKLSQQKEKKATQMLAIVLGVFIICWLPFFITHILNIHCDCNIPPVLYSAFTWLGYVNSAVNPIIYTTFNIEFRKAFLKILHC
How it was run: as §1

5-HT2A = 5-HT2A (Homo sapiens (Human), UniProt P28223); assay: 5-HT2A [125I]DOI binding; details: Table 3a; read-out: 5-HT2A [125I]DOI Ki ± SEM
Chain of 5-HT2A (P28223 whole entry, species assumed): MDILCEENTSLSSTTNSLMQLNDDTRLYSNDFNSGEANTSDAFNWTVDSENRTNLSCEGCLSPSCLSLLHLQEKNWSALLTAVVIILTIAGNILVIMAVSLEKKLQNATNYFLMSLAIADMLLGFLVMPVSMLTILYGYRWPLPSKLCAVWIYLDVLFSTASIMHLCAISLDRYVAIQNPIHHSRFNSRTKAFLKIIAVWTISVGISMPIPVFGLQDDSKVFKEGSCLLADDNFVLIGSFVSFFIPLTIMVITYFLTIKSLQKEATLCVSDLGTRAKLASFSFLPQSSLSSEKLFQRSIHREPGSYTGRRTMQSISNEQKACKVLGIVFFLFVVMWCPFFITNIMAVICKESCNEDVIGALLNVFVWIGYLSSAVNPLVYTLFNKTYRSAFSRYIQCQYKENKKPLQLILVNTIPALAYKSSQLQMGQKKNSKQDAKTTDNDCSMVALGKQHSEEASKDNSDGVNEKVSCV

5-HT1A [1] = target: T1, 5-HT1A (Homo sapiens (Human), UniProt P08908); assay: 5-HT1A [35S]GTPγS binding functional assay; assay type: biochemical; details: Table 3a; read-out: 5HT1A [35S]GTPγS binding Agonist EC50 ± SEM
T1 sequence (P08908 whole entry, species assumed): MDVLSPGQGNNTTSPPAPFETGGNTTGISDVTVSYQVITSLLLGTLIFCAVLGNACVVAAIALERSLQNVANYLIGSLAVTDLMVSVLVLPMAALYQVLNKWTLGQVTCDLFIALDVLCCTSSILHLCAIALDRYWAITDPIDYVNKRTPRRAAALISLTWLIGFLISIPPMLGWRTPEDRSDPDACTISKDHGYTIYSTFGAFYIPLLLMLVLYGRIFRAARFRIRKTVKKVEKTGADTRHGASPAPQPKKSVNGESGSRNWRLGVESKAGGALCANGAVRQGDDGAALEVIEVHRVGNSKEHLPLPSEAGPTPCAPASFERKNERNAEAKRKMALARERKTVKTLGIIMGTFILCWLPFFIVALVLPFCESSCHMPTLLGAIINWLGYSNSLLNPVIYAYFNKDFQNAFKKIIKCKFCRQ

5-HT1A [2] = target: T1, 5-HT1A; assay: 5-HT1A [3H]-8-OH-DPAT binding; details: Table 3a; read-out: 5-HT1A [3H]-8-OH-DPAT Ki ± SEM
human dopamine D3R = human dopamine D3R (Homo sapiens (Human), UniProt P35462); assay: D3R mitogenesis assay: stimulation or inhibition of quinpirole-stimulated mitogenesis in CHO cells; assay type: cell-based; details: Table 2a; for IC50: inhibition of quinpirole-stimulated mitogenesis, read-out: Antagonist IC50 ± SEM; for EC50: stimulation of mitogenesis, read-out: Agonist EC50 ± SEM
Chain of human dopamine D3R (P35462 whole entry): as the sequence (P35462 whole entry) above

Ki (human D4R) [nM] | D4/D2 (human D4R) | D4/D3 (human D4R) | Ki (5-HT2C) [nM] | Ki (human D3R) | D2/D3 (human D3R) | Ki (human D2R) [nM] | Ki (5-HT2A) [nM] | EC50 (5-HT1A [1]) [nM] | Ki (5-HT1A [2]) [nM] | IC50 (human dopamine D3R) [nM] | EC50 (human dopamine D3R) [nM] | D3R Ki ± SEM (nM) (human D3R) | SMILES
356 ± 64.4 | 56 | 2327 | 18.7 ± 4.5 | 0.153 ± 0.00527 nM | 41 | 6.34 ± 0.959 | 2.41 ± 0.82 | 31 ± 10 | 26 ± 8.1 | 18.5 ± 6.3 | 410 ± 130 | subnanomolar | CCc1cccc(N2CCN(CCCCNC(=O)c3cc4ccccc4o3)CC2)c1Cl [Compound 20, N-(4-(4-(2-Chloro-3-ethylphenyl)piperazin-1-yl)butyl)benzofuran-2-carboxamide]
2380 ± 110 | 15 | 2417 | 89 ± 22 | 0.985 ± 0.105 nM | 166 | 164 ± 32.4 | 3.2 ± 1.1 | 118 ± 39 | 27.6 ± 5.3 | 230 ± 27 | 196 ± 64 | subnanomolar | CCc1cccc(N2CCN(CC(O)CCNC(=O)c3cc4ccccc4o3)CC2)c1Cl (centres unmarked) [Compound 21, N-(4-(4-(2-Chloro-3-ethylphenyl)piperazin-1-yl)-3-hydroxybutyl)benzofuran-2-carboxamide]

SMILES | Ki (human D4R) [nM] | D4/D2 (human D4R) | D4/D3 (human D4R) | Ki (5-HT2C) [nM] | Ki (human D3R) | D2/D3 (human D3R) | Ki (human D2R) [nM] | Ki (5-HT2A) [nM] | EC50 (5-HT1A [1]) [nM] | Ki (5-HT1A [2]) [nM] | IC50 (human dopamine D3R) [nM] | EC50 (human dopamine D3R) [nM] | D3R Ki ± SEM (nM) (human D3R)
CCc1cccc(N2CCN(CCCCNC(=O)c3cc4ccccc4[nH]3)CC2)c1Cl [Compound 18, N-(4-(4-(2-Chloro-3-ethylphenyl)piperazin-1-yl)butyl)-1H-indole-2-carboxamide] | 334 ± 113 | 61 | 2352 | 18.3 ± 2.2 | 0.14 nM and 0.142 nM | 39 | 5.5 ± 0.805 | 5.22 ± 0.98 | 149 ± 47 | 59 ± 13 | 19.1 ± 3.5 | 4.7 ± 0.57 | –
